Source: the NIST ThermoML archive (doi:10.1016/j.jct.2005.10.001)

Columns and labels:
[1] = Liquid; for mass density: 293.15 K, 101.33 kPa, Vibrating tube method
[2] = refractive index (Na D-line) (dimensionless); settings: 293.15 K; 101.33 kPa; Liquid; Standard Abbe refractometry

C=C(C)OCC [2-ethoxy-1-propene]
Settings | mass density [kg/m3] | refractive index
[1] | 771.2 | –
[2] | – | 1.3913

[1], Ebulliometric method (Recirculating still)
Settings | vapor or sublimation pressure [kPa]
320.98 K | 62.74
322.13 K | 65.19
322.7 K | 66.66
323.15 K | 67.84
323.47 K | 68.4
324.5 K | 70.65
325.43 K | 72.69
326.52 K | 75.47
327.43 K | 77.89
327.69 K | 79.99
328.26 K | 80.16
329.39 K | 83.21
329.89 K | 85.35
329.96 K | 86.66
331.07 K | 88.17
331.1 K | 89.99
331.48 K | 90.62
332.88 K | 93.41
333.15 K | 95.98
333.68 K | 96.12
334.46 K | 98.47
334.57 K | 99.82
334.67 K | 99.99

CC(C)=O [acetone]
Settings | mass density [kg/m3] | refractive index
[1] | 784.5 | –
[2] | – | 1.359

[1]
Settings | vapor or sublimation pressure [kPa]
317.58 K | 66.66
322.68 K | 79.99
323.15 K | 81.39
324.94 K | 86.66
328.98 K | 99.99

CCC(C)=O [butanone]
Settings | mass density [kg/m3] | refractive index
[1] | 799.8 | –
[2] | – | 1.3765

[1]
Settings | vapor or sublimation pressure [kPa]
333.15 K | 51.89
340.17 K | 66.66
345.51 K | 79.99
349.12 K | 89.99
352.3 K | 99.99
